pIC50: −log10 of the molar value. Structures can show the parent of a compound that is named as a salt.

The term pIC50 denotes the negative decadic logarithm of the IC50, by convention in mol/L. Low values mean a high IC50, high ones a low IC50.

T1 sequence (P14740 37-767 limits assumed): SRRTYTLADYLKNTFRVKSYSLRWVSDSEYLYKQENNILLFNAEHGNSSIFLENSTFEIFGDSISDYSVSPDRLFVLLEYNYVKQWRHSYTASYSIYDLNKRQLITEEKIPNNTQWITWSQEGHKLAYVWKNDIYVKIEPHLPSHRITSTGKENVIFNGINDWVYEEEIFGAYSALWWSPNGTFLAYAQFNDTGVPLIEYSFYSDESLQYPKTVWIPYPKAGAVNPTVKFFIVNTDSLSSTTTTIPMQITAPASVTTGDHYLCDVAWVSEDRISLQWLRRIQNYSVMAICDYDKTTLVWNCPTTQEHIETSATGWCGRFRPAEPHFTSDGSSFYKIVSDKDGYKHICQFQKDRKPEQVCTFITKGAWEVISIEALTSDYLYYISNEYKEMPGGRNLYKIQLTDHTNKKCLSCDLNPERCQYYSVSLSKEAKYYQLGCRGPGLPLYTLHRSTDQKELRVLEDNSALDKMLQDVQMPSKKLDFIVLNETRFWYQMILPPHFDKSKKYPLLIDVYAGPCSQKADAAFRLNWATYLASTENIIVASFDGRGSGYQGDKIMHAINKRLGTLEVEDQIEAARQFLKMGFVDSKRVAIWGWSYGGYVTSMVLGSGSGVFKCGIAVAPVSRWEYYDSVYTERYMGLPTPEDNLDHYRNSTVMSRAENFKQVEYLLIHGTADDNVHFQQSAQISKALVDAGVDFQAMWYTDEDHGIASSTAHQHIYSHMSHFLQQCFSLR

The first experiment has as its target T1, dipeptidyl peptidase IV (Rattus norvegicus, UniProt P14740).
T1 construct: from tissue; host or cells: SD rat blood plasma
The experiment is described as follows: Determination of dipeptidyl peptidase IV inhibitory activity in rat plasma (Experimental Example 1). The class given is biochemical. The note with it: plasma of SD rat, substrate Gly-Pro-p-NA, 30° C., absorbance 405 nm after 1 hr; Table 5. How it is done: (§1) Determination of Dipeptidyl Peptidase IV Inhibitory Activity in Rat Plasma
(§2) A dimethylformamide solution (1 μL) containing the test compound was added to a mixture of water (69 μL), 1 M Tris-hydrochloride buffer (10 μL, pH 7.5) and 1 mM aqueous Gly-Pro-p-NA solution (100 μL) to prepare a mixed solution. Plasma (20 μL) prepared from blood of SD rat according to a conventional method was added to the above-mentioned mixed solution and the enzyme reaction was started at 30° C. The absorbance after 0 hr. and 1 hr. was measured using a microplate reader at a wavelength of 405 nm and an increase (AODs) was determined. At the same time, an increase (AODc) in absorbance of the reaction mixture without the test compound, and an increase (AODb) in absorbance of the reaction mixture without the test compound and the enzyme were determined and the inhibition rate of dipeptidyl peptidase IV enzyme activity was calculated from the following formula:
(§3) {1−[(ΔODs−ΔODb)/(ΔODc−ΔODb)]}×100
The dipeptidyl peptidase IV inhibitory activity of the test compound group is expressed in IC50 value (nM) and shown in Table 5.
As for `CCc1nc(CC(C)(C)C)c(CN)c(-c2ccc(C)cc2)c1CC(=O)N1CCN(C(C)=O)CC1` [Example 89], the pIC50 is 8.44.

With `CC(=O)N1CCN(C(=O)Cc2c(CC(C)C)nc(CC(C)C)c(CN)c2-c2ccc(C)cc2)CC1` [Example 47], the pIC50 is 8.32.

`Cc1ccc(-c2c(CN)c(CC(C)C)nc(CC(C)C)c2CC(=O)N2CCC(S(C)(=O)=O)C2)cc1` (stereo not shown) [Example 10, [(2,6-diisobutyl-4-(4-methylphenyl)-5-{2-[3-(methylsulfonyl)pyrrolidin-1-yl]-2-oxoethyl}pyridin-3-yl)methyl]amine ditrifluoroacetate] gave a pIC50 of 9.07.

Take `Cc1ccc(-c2c(CN)c(CC(C)C)nc(CC(C)C)c2CC(=O)N2C[C@@H](C)O[C@@H](C)C2)cc1` [Example 20]: the pIC50 is 8.08.

Regarding `CCc1nc(CC(C)(C)C)c(CN)c(-c2ccc(C)cc2)c1CC(=O)N1C[C@@H](C)O[C@@H](C)C1` [Example 64], the pIC50 is 8.77.

In turn, `CCc1nc(CC(C)(C)C)c(CN)c(-c2ccc(C)cc2)c1CC(=O)Nc1ccc(C(C)=O)cc1` [Example 80] showed a pIC50 of 7.96.

`CCc1nc(CC(C)(C)C)c(CN)c(-c2ccc(C)cc2)c1CC(=O)N1CCC[C@H]1C(N)=O` [Example 87] showed a pIC50 of 9.49.

In the case of `CCc1nc(CC(C)C)c(CN)c(-c2ccc(C)cc2)c1CC(=O)O` [Example 1, [5-(aminomethyl)-2-ethyl-6-isobutyl-4-(4-methylphenyl)pyridin-3-yl]acetic acid], the pIC50 was 7.48.

On to `Cc1ccc(-c2c(CN)c(CC(C)C)nc(CC(C)C)c2CC(=O)N2CCC[C@H]2C(N)=O)cc1` [Example 45], for which the pIC50 was 8.70.

The target of another experiment is T1, dipeptidyl peptidase IV. The experiment is described as follows: Determination of dipeptidyl peptidase IV inhibitory activity in rat plasma (Experimental Example 2). The class given is biochemical. The note with it: plasma of SD rat, same manner as Experimental Example 1; Table 6. How it is done: as §2, §3, §1
`Cc1ccc(-c2c(CN)c(CC(C)C)nc(CC(C)C)c2CC(=O)O)cc1` [Example 2, [5-(aminomethyl)-2,6-diisobutyl-4-(4-methylphenyl)pyridin-3-yl]acetic acid dihydrochloride] showed a pIC50 of 7.46.

`CCc1nc(CC(C)(C)C)c(CN)c(-c2ccc(C)cc2)c1CC(=O)N1CCC[C@H]1C(N)=O` [Example 6, 1-{[5-(aminomethyl)-2-ethyl-4-(4-methylphenyl)-6-neopentylpyridin-3-yl]acetyl}-L-prolinamide] had a negative-log IC50 (pIC50) of 8.57.

As to `CCc1nc(CC(C)(C)C)c(CN)c(-c2ccc(C)cc2)c1CC(=O)Nc1cccc(S(C)(=O)=O)c1` [Example 7, 2-[5-(aminomethyl)-2-ethyl-4-(4-methylphenyl)-6-neopentylpyridin-3-yl]-N-[3-(methylsulfonyl)phenyl]acetamide dihydrochloride], the pIC50 was 7.29.

`CCc1nc(CC(C)(C)C)c(CN)c(-c2ccc(C)cc2)c1CC(=O)Nc1cccc(C(C)=O)c1` [Example 5, N-(3-acetylphenyl)-2-[5-(aminomethyl)-2-ethyl-4-(4-methylphenyl)-6-neopentylpyridin-3-yl]acetamide dihydrochloride] had a pIC50 of 8.29.

Values taken from patent US20090088419A1, “PYRIDYL ACETIC ACID COMPOUNDS” (TAKEDA PHARMACEUTICAL COMPANY LIMITED, priority 2005, published 2009).
